Data as given in ChEMBL document CHEMBL3785025, “Focus on PAINS: false friends in the quest for selective anti-protozoal lead structures from Nature?” (Medchemcomm, 2016).
pIC50: −log10 of the molar value. Values after ≈ are worked out from the molar mass of the structure shown. One block for each compound: values may come before it.

Key:
L6 = test: Cytotoxicity against rat L6 cells after 72 hrs by alamar blue staining based fluorescence analysis; format: functional, cell-based; conditions: L6, 72 h
Arginase-1 = target: T1, Arginase-1 (Rattus norvegicus, UniProt P07824); test: Inhibition of recombinant rat liver arginase expressed without histidine tail assessed as urea formation using L-arginine as substrate after 15 mins by Berthelot assay
T1 sequence (P07824 whole entry): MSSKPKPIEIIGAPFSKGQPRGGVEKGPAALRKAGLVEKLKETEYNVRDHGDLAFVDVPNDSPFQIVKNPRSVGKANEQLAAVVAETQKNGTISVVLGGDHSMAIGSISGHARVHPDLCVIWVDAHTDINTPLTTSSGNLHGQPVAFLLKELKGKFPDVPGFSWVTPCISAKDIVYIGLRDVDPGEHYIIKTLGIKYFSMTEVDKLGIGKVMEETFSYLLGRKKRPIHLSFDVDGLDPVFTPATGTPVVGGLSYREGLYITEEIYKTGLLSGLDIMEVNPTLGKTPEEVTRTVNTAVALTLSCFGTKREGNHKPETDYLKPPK

Trypanosoma cruzi [1] = test: Antitrypanosomal activity against trypomastigote forms of Trypanosoma cruzi Tulahuen C2C4 infected in rat L6 cells after 96 hrs by photometric method; format: functional, organism-based; conditions: Tulahuen C2C4, L6, 96 h
Leishmania donovani [2] = test: Antileishmanial activity against Leishmania donovani MHOM/ET/67/L82 after 72 hrs by Alamar blue dye based fluorescence analysis; format: functional, organism-based; conditions: MHOM/ET/67/L82, 72 h
[3] = tested on: Trypanosoma brucei rhodesiense; test: Antitrypanosomal activity against Trypanosoma brucei rhodesiense STIB 900 after 72 hrs by alamar blue staining based fluorescence analysis; format: functional, organism-based; conditions: STIB 900, 72 h
Trypanosoma brucei = test: Antitrypanosomal activity against Trypanosoma brucei; format: functional, organism-based
Plasmodium falciparum [4] = test: Antimalarial activity against chloroquine-sensitive Plasmodium falciparum 3D7 after 24 hrs by [3H]hypoxanthine labeling method; format: functional, organism-based
[5] = tested on: Trypanosoma brucei brucei; test: Antitrypanosomal activity against Trypanosoma brucei brucei; format: functional, organism-based
[6] = Cytotoxicity against HEK293T cells; format: cell-based; conditions: Homo sapiens, HEK-293T
Leishmania major [7] = test: Antileishmanial activity against Leishmania major promastigotes; format: functional; conditions: read-out: LD50 (the source's name)
Plasma = test: Plasma concentration in human at […], administered orally by HPLC method in presence of 20 mg piperine; format: ADME, cell-free; conditions: po
[8] = Cytotoxicity against mouse J774.1 cells; format: cell-based
Leishmania major [9] = test: Antileishmanial activity against promastigote Leishmania major MHOM/IL/67/LRC-L137 assessed as growth inhibition after 2 hrs by [3H]-thymidine incorporation assay; format: functional, organism-based
Leishmania donovani [10] = test: Antileishmanial activity against […] Leishmania donovani MHOM/KE/85/NLB439 in human peripheral blood monocyte derived macrophages assessed as growth inhibition after 24 hrs by [3H]-thymidine incorporation assay; format: functional, organism-based
Leishmania amazonensis [11] = test: Antileishmanial activity against amastigote Leishmania amazonensis relative to control; format: functional
Leishmania amazonensis [12] = test: Antileishmanial activity against amastigote Leishmania amazonensis; format: functional, organism-based
Plasmodium falciparum [13] = test: Antimalarial activity against chloroquine-sensitive Plasmodium falciparum 3D7 after 48 hrs by ethidium bromide staining based fluorometric method; format: functional, organism-based; conditions: 3D7, 48 h
[14] = Cytotoxicity against human U937 cells after 72 hrs by MTT assay; format: functional; conditions: U-937, 72 h, read-out: LD50 (the source's name)
Plasmodium falciparum [15] = test: Antiplasmodial activity against chloroquine-resistant Plasmodium falciparum FcB1/Colombia after 24 hrs by [3H]hypoxanthine incorporation assay; format: functional, organism-based
Leishmania donovani [16] = test: Antileishmanial activity against Leishmania donovani MHOM/ET/67/HU3 after 5 days by Giemsa staining based microscopic analysis; format: functional, organism-based; conditions: MHOM/ET/67/HU3, 120 h
[17] = Cmax in Wistar rat at 50 mg/kg after 2 hrs by UPLC method; format: ADME, organism-based; design: dose 50 mg/kg; conditions: in vivo
[18] = Cmax in Wistar rat at 50 mg/kg administered as lipid nanoparticle suspension after 2 hrs by UPLC method; format: ADME, organism-based; design: dose 50 mg/kg; conditions: in vivo
Leishmania tropica = test: Antileishmanial activity against Leishmania tropica MHOM/IR/2002/Mash2 assessed as cell viability after 72 hrs by MTT assay; format: functional, organism-based; conditions: MHOM/IR/2002/Mash2, 72 h
Leishmania infantum = test: Antileishmanial activity against Leishmania infantum MCAN/IR/07/Moheb-gh assessed as cell viability after 72 hrs by MTT assay; format: functional, organism-based
Trypanosoma cruzi [19] = test: Antitrypanosomal activity against trypomastigote forms of Trypanosoma cruzi Tulahuen C2C4 infected in rat L6 cells assessed as inhibition of growth after 96 hrs by inverted microscopy; format: functional, organism-based; conditions: Tulahuen C2C4, L6, 96 h
Leishmania donovani [20] = test: Antileishmanial activity against Leishmania donovani MHOM/ET/67/L82 after 72 hrs by resazurin dye based fluorescence analysis; format: functional, organism-based; conditions: MHOM/ET/67/L82, 72 h
Plasmodium falciparum [21] = test: Antimalarial activity against chloroquine and pyrimethamine-resistant Plasmodium falciparum K1 infected in human red blood cells after 48 hrs by [3H]hypoxanthine incorporation assay; format: functional, organism-based

Compound: O=c1cc(-c2ccc(O)c(O)c2)oc2cc(O)cc(O)c12 [LUTEOLIN]
IC50 (L6): 9.4 µg/mL | pIC50 (Arginase-1): 5.05 | IC50 (Trypanosoma cruzi [1]): 21.4 µg/mL (≈ 74.8 µM) | IC50 (Leishmania donovani [2]): 0.8 µg/mL (≈ 2.79 µM) | IC50 [3]: 3.7 µg/mL

Compound: COc1cc(/C=C/C(=O)CC(=O)/C=C/c2ccc(O)c(OC)c2)ccc1O [CURCUMIN]
pIC50 (Trypanosoma brucei): 5.44 | pIC50 (Plasmodium falciparum [4]): 4.60 | LC50 ([5]; read-out: LD50 (the source's name)): 46.5 µM | pIC50 [6]: 4.82 | LC50 (Leishmania major [7]): 37.6 µM | Cp (Plasma): 180 ng/mL | pIC50 [8]: 4.51

Compound: C=CC(C)(C)c1cc(/C=C/C(=O)c2ccc(O)cc2)c(OC)cc1O [LICOAGROCHACONE A]
pIC50 (Leishmania major [9]): 5.14 | pIC50 (Leishmania donovani [10]): 6.05

IC50 (Leishmania amazonensis [12]): 0.78 µg/mL (≈ 1.68 µM)
Compound: O=c1c(O[C@@H]2O[C@H](CO)[C@@H](O)[C@H](O)[C@H]2O)c(-c2ccc(O)c(O)c2)oc2cc(O)cc(O)c12 [ISOQUERCETIN]
Activity (Leishmania amazonensis [11]): 40%

Compound: CC(C)=CCc1c(O)c(O)c(O)c2c(=O)c3c(CC=C(C)C)c(O)c(O)cc3oc12
pIC50 (Plasmodium falciparum [13]): 4.91 | CC50 [14]: 263 µM

Compound: COc1ccc(CC[C@@H](C[C@H](CCc2ccc(O)c(O)c2)O[C@@H]2O[C@H](CO)[C@@H](O)[C@H](O)[C@H]2O)OC=O)cc1
pIC50 (Plasmodium falciparum [15]): < 4.70 | pIC50 [5]: 4.60 | pIC50 (Leishmania donovani [16]): 4.52

Compound: OC[C@H]1O[C@@H](O[C@@H](CCc2ccc(O)c(O)c2)C[C@@H](O)CCc2ccc(O)c(O)c2)[C@H](O)[C@@H](O)[C@@H]1O
pIC50 (Plasmodium falciparum [15]): < 4.70 | pIC50 [5]: 4.60 | pIC50 (Leishmania donovani [16]): 4.52

Compound: COc1ccc(CC[C@H](O)C[C@H](CCc2ccc(O)c(O)c2)O[C@@H]2O[C@H](CO)[C@@H](O)[C@H](O)[C@H]2O)cc1
pIC50 (Plasmodium falciparum [15]): < 4.70 | pIC50 [5]: < 4.00 | pIC50 (Leishmania donovani [16]): 4.52

Compound: C[C@@H]1O[C@@H](Oc2c(-c3ccc(O)c(O)c3)oc3cc(O)cc(O)c3c2=O)[C@H](O)[C@H](O)[C@H]1O [QUERCITRIN]
IC50 (L6): > 90 µg/mL | IC50 (Trypanosoma cruzi [1]): > 30 µg/mL | IC50 (Leishmania donovani [2]): 17.7 µg/mL (≈ 39.5 µM) | IC50 [3]: 27.9 µg/mL

Compound: O=c1c(O)c(-c2ccc(O)c(O)c2)oc2cc(O)cc(O)c12 [QUERCETIN]
IC50 (Trypanosoma cruzi [1]): > 30 µg/mL | IC50 (Leishmania donovani [2]): 1 µg/mL (≈ 3.31 µM) | IC50 [3]: 8.3 µg/mL

Compound: O=CO[C@@H](CCc1ccc(O)c(O)c1)C[C@H](CCc1ccc(O)c(O)c1)O[C@@H]1O[C@H](CO)[C@@H](O)[C@H](O)[C@H]1O
pIC50 (Plasmodium falciparum [15]): < 4.70 | pIC50 [5]: 4.60 | pIC50 (Leishmania donovani [16]): 4.52

pIC50 (Arginase-1): 5.85 | IC50 (Trypanosoma cruzi [1]): > 30 µg/mL | IC50 [3]: 3.3 µg/mL
Compound: O=c1c(O)c(-c2ccc(O)c(O)c2)oc2cc(O)ccc12 [FISETIN]
IC50 (L6): 38.5 µg/mL | IC50 (Leishmania donovani [2]): 0.6 µg/mL (≈ 2.1 µM)

IC50 (Trypanosoma cruzi [1]): 21.8 µg/mL (≈ 80.7 µM) | IC50 [3]: 5.1 µg/mL
Compound: O=c1cc(-c2ccc(O)cc2)oc2cc(O)cc(O)c12 [APIGENIN]
IC50 (L6): 18.1 µg/mL | IC50 (Leishmania donovani [2]): 1.9 µg/mL (≈ 7.03 µM)

Compound: CC1=CC(=O)C(C(C)C)=CC1=O [THYMOQUINONE]
Cmax [17]: 400 ng/mL | Cmax [18]: 900 ng/mL | IC50 (Leishmania tropica): 1.16 µg/mL (≈ 7.06 µM) | IC50 (Leishmania infantum): 1.47 µg/mL (≈ 8.95 µM)

Compound: C/C=C(\C)CO[C@@H]1CC([C@@H](O)[C@]2(C)C=C3OC(=O)C4=C3[C@H]2[C@H]2OC(=O)[C@H](C)[C@@H]2[C@H](OC/C(C)=C/C)C4)=C2C(=O)C=C(C)[C@@H]2[C@H]2OC(=O)[C@H](C)[C@@H]21
pIC50 (Trypanosoma cruzi [19]): 4.52 | pIC50 (Leishmania donovani [20]): 4.99 | pIC50 (Plasmodium falciparum [21]): 5.70 | pIC50 (L6): 4.79 | pIC50 [3]: 5.21
